target: T1, human full-length HSP90 (Homo sapiens, UniProt P08238); assay: Fluorescence polarization assay (competitive displacement of probe RBT0051001-FAM from HSP90); type: binding; details: Table 1; read-out: Hsp90 FP IC50
T1 construct: E. coli expressed human full-length HSP90 protein, purified >95%; made in house; host or cells: E. coli
From the text: Fluorescence Polarization Assay
Fluorescence polarization {also known as fluorescence anisotropy} measures the rotation of a fluorescing species in solution, where the larger molecule the more polarized the fluorescence emission. When the fluorophore is excited with polarized light, the emitted light is also polarized. The molecular size is proportional to the polarization of the fluorescence emission.
The fluoroscein-labelled probe —RBT0051001-FAM—
binds to HSP90 {full-length human, full-length yeast or N-terminal domain HSP90} and the anisotropy {rotation of the probe:protein complex} is measured.
Test compound is added to the assay plate, left to equilibrate and the anisotropy measured again. Any change in anisotropy is due to competitive binding of compound to HSP90, thereby releasing probe.
Chemicals are of the highest purity commercially available and all aqueous solutions are made up in AR water. • 1) Costar 96-well black assay plate #3915 • 2) Assay buffer of (a) 100 mM Tris pH7.4; (b) 20 mM KCl; (c) 6 mM MgCl2. Stored at room temperature. • 3) BSA (bovine serum albumen) 10 mg/ml (New England Biolabs # B9001S) • 4) 20 mM probe in 100% DMSO stock concentration. Stored in the dark at RT. Working concentration is 200 nM diluted in AR water and stored at 4° C. Final concentration in assay 80 nM. • 5) E. coli expressed human full-length HSP90 protein, purified >95% (see, e.g., Panaretou et al., 1998) and stored in 50 μL aliquots at −80° C.
• 1) Add 100 μl 1× buffer to wells 11A and 12A (=FP BLNK) • 2) Prepare assay mix—all reagents are kept on ice with a lid on the bucket as the probe is light-sensitive.
• 3) Aliquot 100 μl assay mix to all other wells • 4) Seal plate and leave in dark at room temp for 20 minutes to equilibrate Compound Dilution Plate—1×3 dilution series • 1) In a clear 96-well v-bottom plate-{# VWR 007/008/257} add 10 μl 100% DMSO to wells B1 to H11 • 2) To wells A1 to A11 add 17.5 μl 100% DMSO • 3) Add 2.5 μl cpd to A1. This gives 2.5 mM {50×} stock cpd-assuming cpds 20 mM. • 4) Repeat for wells A2 to A10. Control in columns 11 and 12. • 5) Transfer 5 μl from row A to row B—not column 12. Mix well. • 6) Transfer 5 μl from row B to row C. […] In column 11 {provides standard curve} only add compound B11-H11. Add 2 μl of 100 mM standard cpd to wells B12-H12 {is positive control} • 13) The Z′ factor is calculated from zero controls and positive wells. It typically gives a value of 0.7-0.9.
The compounds tested in the above assay were assigned to one of two activity ranges, namely A=<10 μM; B=>10 μM, and those assignments are reported above.

T1 sequence (P08238 whole entry): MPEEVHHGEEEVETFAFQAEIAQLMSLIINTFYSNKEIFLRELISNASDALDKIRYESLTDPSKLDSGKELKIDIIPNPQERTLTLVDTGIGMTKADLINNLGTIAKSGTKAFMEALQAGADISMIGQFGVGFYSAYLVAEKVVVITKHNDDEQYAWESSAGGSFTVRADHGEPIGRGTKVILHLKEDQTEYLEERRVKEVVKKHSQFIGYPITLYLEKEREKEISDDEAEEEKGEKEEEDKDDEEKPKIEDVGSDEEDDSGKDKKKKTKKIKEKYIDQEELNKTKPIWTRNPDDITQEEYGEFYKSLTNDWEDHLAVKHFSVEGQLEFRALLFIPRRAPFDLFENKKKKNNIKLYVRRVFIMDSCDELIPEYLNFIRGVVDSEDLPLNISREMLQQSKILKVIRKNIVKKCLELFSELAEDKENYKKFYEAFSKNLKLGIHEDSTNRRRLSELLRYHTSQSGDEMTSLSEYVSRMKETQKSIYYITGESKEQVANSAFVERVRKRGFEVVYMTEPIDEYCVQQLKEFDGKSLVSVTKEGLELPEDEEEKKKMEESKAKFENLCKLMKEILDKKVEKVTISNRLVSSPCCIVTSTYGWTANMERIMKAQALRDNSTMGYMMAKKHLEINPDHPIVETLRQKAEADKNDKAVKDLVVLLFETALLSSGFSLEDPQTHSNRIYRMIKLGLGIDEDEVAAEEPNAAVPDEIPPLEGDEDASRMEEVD

Row | Compound | IC50
1 | CCONC(=O)c1cc2c(-c3ccc(Cl)cc3Cl)nc(N)nc2s1 [Example 15] | < 10 µM
2 | CNNC(=O)c1cc2c(-c3ccc(Cl)cc3Cl)nc(N)nc2s1 [Example 16] | < 10 µM
3 | CONC(=O)c1cc2c(-c3ccc(Cl)cc3Cl)nc(N)nc2s1 [Example 14] | < 10 µM
4 | CCCNC(=O)c1ccc(C)c(-c2nc(N)nc3sc(C(=O)NOC)cc23)c1 [Example 17] | < 10 µM

same assay, conditions: activity range stated in each example; read-out: activity in the fluorescence polarization assay

Row | Compound | IC50
5 | CCC(=O)c1cc2c(-c3ccc(Cl)cc3Cl)nc(N)nc2s1 [Example 8, 1-[2-Amino-4-(2,4-dichloro-phenyl)-thieno[2,3-d]pyrimidine-6-yl]-propan-1-one] | < 10 µM
6 | CCN(CC)CCOc1cc(-c2nc(N)nc3sc(C=O)cc23)c(Cl)cc1Cl [Example 33, 2-amino-4-[2,4-dicholoro-5-(2-diethylamino-ethoxy)-phenyl]thieno[2,3-d]pyrimidine-6-carbaldehyde] | < 10 µM
7 | CC(=O)NCc1cc2c(-c3ccc(Cl)cc3Cl)nc(N)nc2s1 [Example 26, N-[2-Amino-4-(2,4-dichloro-phenyl)-thieno[2,3-d]pyrimidin-6-ylmethyl]-acetamide] | < 10 µM
8 | Nc1nc(-c2cc(OCc3ccccc3)c(Cl)cc2Cl)c2cc(C(=O)O)sc2n1 [Example 37, 2-Amino-4-[5-benzyloxy-2,4-dichloro-phenyl]-thieno[2,3-d]pyrimidine-6-carboxylic acid] | < 10 µM
9 | CCN(CC)CCOc1cc(-c2nc(N)nc3sc(-c4n[nH]c(N)n4)cc23)c(Cl)cc1Cl [Example 39, 6-(5-Amino-1H-[1,2,4]triazol-3-yl)-4-[2,4-dichloro-5-(2-diethylamino-ethoxy)-phenyl]-thieno[2,3-d]pyrimidin-2-ylamine] | < 10 µM
10 | CCN(CC)CCOc1cc(-c2nc(N)nc3sc(-c4cc(C)n[nH]4)cc23)c(Cl)cc1Cl [Example 35, 4-[2,4-dicholoro-5-(2-diethylamino-ethoxy)-phenyl]-6-(5-methyl-2H-pyrazol-3-yl)-thieno[2,3-d]pyrimidine-2-ylamine] | < 10 µM
11 | CCC(O)(CC)c1cc2c(-c3ccc(Cl)cc3Cl)nc(N)nc2s1 [Example 4, 3-[2-Amino-4-(2,4-dichloro-phenyl)-thieno[2,3-d]pyrimidin-6-yl]-pentan-3-ol] | < 10 µM
12 | Cc1ccc(-c2nc(N)nc3sc(C(=O)O)cc23)c(C)c1 [Example 2, 2-Amino-4-(2,4-dimethyl-phenyl)-thieno[2,3-d]pyrimidine-6-carboxylic acid] | > 10 µM
13 | CCOC(=O)/C=C/c1cc2c(-c3cc(OCCN(CC)CC)c(Cl)cc3Cl)nc(N)nc2s1 [Example 41, 3-{2-Amino-4-[2,4-Dichloro-5-(2-diethylamino-ethoxy)-phenyl]-thieno[2,3-d]pyrimidin-6-yl}-acrylic acid ethyl ester] | < 10 µM
14 | Nc1nc(-c2ccc(Cl)cc2Cl)c2cc(C(=O)O)sc2n1 [Example 1, 2-Amino-4-(2,4-dichloro-phenyl)-thieno[2,3-d]pyrimidine-6-carboxylic acid] | < 10 µM
15 | CC(C)(O)c1cc2c(-c3ccc(Cl)cc3Cl)nc(N)nc2s1 [Example 3, 2-[2-Amino-4-(2,4-dichloro-phenyl)-thieno[2,3-d]pyrimidin-6-yl]-propan-2-ol] | > 10 µM
16 | N#Cc1cc2c(-c3cc(OCc4ccccc4)c(Cl)cc3Cl)nc(N)nc2s1 [Example 28, 2-amino-4-(5-benzyloxy-2,4-dichloro-phenyl)-thieno[2,3-d]pyrimidine-6-carbonitrile] | < 10 µM
17 | CCN(CC)CCOc1cc(-c2nc(N)nc3sc(C4=NCCN4)cc23)c(Cl)cc1Cl [Example 31, 4-[2,4-dichloro-5-(2-diethylamino-ethoxy)-phenyl]-6-(4,5-dihydro-1H-imidazol-2-yl)-thieno[2,3-d]pyrimidin-2-ylamine] | < 10 µM
18 | CCN(CC)CCOc1cc(-c2nc(N)nc3sc(/C(N)=N/O)cc23)c(Cl)cc1Cl [Example 30, 2-Amino-4-[2,4-dichloro-5-(2-diethylamino-ethoxy)-phenyl]-N-hydroxy-thieno[2,3-d]pyrimidine-6-carboxamidine] | < 10 µM
19 | Nc1nc(-c2ccc(Cl)cc2Cl)c2cc(-c3ccc[nH]3)sc2n1 [Example 21, 4-(2,4-Dichloro-phenyl)-6-(1H-pyrrol-2-yl)-thieno[2,3-d]pyrimidin-2-ylamine] | < 10 µM
20 | Cc1ccc(-c2nc(N)nc3sccc23)c(C)c1 [Example 27, 4-(2,4-Dimethyl-phenyl)-thieno[2,3-d]pyrimidine-2-ylamine] | < 10 µM

Row | Compound | IC50
21 | CCN(CC)CCOc1cc(-c2nc(N)nc3sc(CO)cc23)c(Cl)cc1Cl [Example 32, {2-amino-4-[2,4-dichloro-5-(2-diethylamino-ethoxy)-phenyl]-thieno[2,3-d]pyrimidin-6-yl}-methanol] | < 10 µM
22 | Cc1cn[nH]c1-c1cc2c(-c3ccc(Cl)cc3Cl)nc(N)nc2s1 [Example 20, 4-(2,4-Dichloro-phenyl)-6-(4-methyl-2H-pyrazol-3-yl)-thieno[2,3-d]pyrimidin-2-ylamine] | < 10 µM
23 | CCN(CC)CCOc1cc(-c2nc(N)nc3sc(-c4nn[nH]n4)cc23)c(Cl)cc1Cl [Example 40, 4-[2,4-Dichloro-5-(2-diethylamino-ethoxy)-phenyl]-6-(2H-tetrazol-5-yl)-thieno[2,3-d]pyrimidin-2-ylamine] | < 10 µM
24 | Nc1nc(-c2ccc(Cl)cc2Cl)c2cc(-c3cnc[nH]3)sc2n1 [Example 24, 4-(2,4-Dichloro-phenyl)-6-(3H-imidazol-4-yl)-thieno[2,3-d]pyrimidin-2-ylamine] | < 10 µM
25 | Nc1nc(-c2ccc(Cl)cc2Cl)c2cc(CO)sc2n1 [Example 6, [2-Amino-4-(2,4-dichloro-phenyl)-thieno[2,3-d]pyrimidin-6-yl]methanol] | < 10 µM
26 | CC(=O)Nc1nc(C)c(-c2cc3c(-c4ccc(Cl)cc4Cl)nc(N)nc3s2)[nH]1 [Example 22, N-{5-[2-Amino-4-(2,4-dichloro-phenyl)-thieno[2,3-d]pyrimidin-6-yl]-4-methyl-1H-imidazol-2-yl}-acetamide] | < 10 µM
27 | CCN(CC)CCOc1cc(-c2nc(N)nc3sc(C#N)cc23)c(Cl)cc1Cl [Example 29, 2-Amino-4-[2,4-dichloro-5-(diethylamino-ethoxy)-phenyl]-thieno[2,3-d]pyrimidine-6-carbonitrile] | < 10 µM
28 | Nc1nc(-c2ccc(Cl)cc2Cl)c2cc(-c3n[nH]c(N)n3)sc2n1 [Example 38, 6-(5-Amino-1H-[1,2,4]triazol-3-yl)-4-(2,4-dichloro-phenyl)-thieno[2,3-d]pyrimidin-2-ylamine] | < 10 µM
29 | CCN(CC)CCOc1cc(-c2nc(N)nc3sc(C(=O)O)cc23)c(Cl)cc1Cl [Example 36, 2-Amino-4-[2,4-dichloro-5-(2-diethylamino-ethoxy)-phenyl]-thieno[2,3-d]pyrimidine-6-carboxylic acid] | < 10 µM
30 | Nc1nc(-c2ccc(Cl)cc2Cl)c2cc(C(=O)Nn3cnnc3)sc2n1 [Example 13, 2-Amino-4-(2,4-dichloro-phenyl)-thieno[2,3-d]pyrimidine-6-carboxylic acid [1,2,4]triazol-4-ylamide] | < 10 µM
31 | CCCNCc1cc2c(-c3ccc(C)cc3C)nc(N)nc2s1 [Example 18, 4-(2,4-dimethyl-phenyl)-6-propylaminomethyl-thieno[2,3-d]pyrimidin-2-ylamine] | < 10 µM
32 | CCN(CC)CCOc1cc(-c2nc(N)nc3sc(/C=C/C(C)=O)cc23)c(Cl)cc1Cl [Example 34, 4-{2-Amino-4-[2,4-dicholoro-5-(2-diethylamino-ethoxy)-phenyl]thieno[2,3-d]pyrimidine-6-yl}-but-3-en-2-one] | < 10 µM
33 | NCc1cc2c(-c3ccc(Cl)cc3Cl)nc(N)nc2s1 [Example 25, 6-Aminomethyl-4-(2,4-dichloro-phenyl)-thieno[2,3-d]pyrimidin-2-ylamine] | < 10 µM
34 | Cc1cc(-c2cc3c(-c4ccc(Cl)cc4Cl)nc(N)nc3s2)[nH]n1 [Example 19, 4-(2,4-Dichloro-phenyl)-6-(5-methyl-2H-pyrazol-3-yl)-thieno[2,3-d]pyrimidin-2-ylamine] | < 10 µM
35 | Cc1ccc(-c2nc(N)nc3sc(C#N)cc23)c(C)c1 [Example 7, 2-Amino-4-(2,4-dimethylphenyl)-thieno[2,3-d]pyrimidine-6-carbonitrile] | < 10 µM

From US20090069336A1, “PYRIMIDOTHIOPHENE COMPOUNDS” (VERNALIS (CAMBRIDGE) LIMITED., priority 2004, published 2009)
